Experimental data from patent US20050170015A1 (priority 2000, published 2005).
Where two headings read alike, the source gives them in different places.

Assays:
[1] = system: RIF-1 murine fibrosarcoma; experiment: RIF-1 tumor growth delay, thiocolchicine alone and with cisplatin, camptothecin or amonafide (Example 6); format: in vivo, C3H mice; details: Ex# E047
Description: Cisplatin for Injection, USP, was obtained as the commercial product from Bristol Laboratories (Platinol®, Lot No. K1F26A). Camptothecin was obtained from Boehinger-Ingelheim Lot 142088. Amonafide dihydrochloride was prepared in house, in a solution of 20 mg/ml. 0.9% Sodium Chloride for Injection, USP (saline) was manufactured by Abbott Laboratories (Lot No. 55-199-DK). Sterile Water for Injection, USP (WFI) was manufactured by Lyphomed, Inc. (Lot No. 390849). DMSO was obtained from Sigma (St. Louis, Mo.). DMF (dimethylformamide) was obtained from Sigma (St. Louis, Mo.). PEG400 was obtained from Sigma (St. Louis, Mo.).
For preparation of cisplatin formulation, the contents of a 10-mg vial of lyophilized CDDP (Cisplatin for Injection) was resuspended with 10 mL WFI to produce a 1 mg/mL CDDP suspension.
Camptothecin was prepared in a solution of DMSO at 0.75 mg/ml.
This was further diluted using saline to […].
Amonafide was diluted to 15 mg/ml with saline.
Food and water were available ad libitum.
Tumors: The RIF-1 murine fibrosarcoma cell line was maintained in in vitro culture (Wayrnouth medium supplemented with 20% fetal bovine serum) at 37° C. in a humidified 5% CO2 incubator. Log-phase RIF-1 cells were trypsinized and harvested from cell culture flasks to yield a concentration of 4×10^6 cells/mL, then injected intradermally in a volume of 50 μL (equivalent to 2×10^5 cells per injection) into both flanks of each mouse. Nine days later, when tumors reached approximately 100 mm^3 in size, the animals were randomized to different treatment groups.
Evaluation of Tumor Growth Delay: Tumors were measured three times weekly for up to 22 days with Vernier calipers. Tumor volume (cubic millimeters, mm^3) was calculated according to the formula: [formula] in which D1-3 are perpendicular diameters measured in millimeters (mm). Tumor volume quadrupling time (TVQT), defined as the time required for a tumor to grow to four times (4×) its initial volume (at the time of treatment), was used as a study endpoint.
The TVQT was determined for each treatment group and expressed in days as the mean±standard error (SE).

[2] = system: murine fibrosarcomas (RIF-1 cells); experiment: RIF-1 tumor growth delay, single-dose colchicine with camptothecin (Example 2A); format: in vivo, C3H mice
Description: (§1) For the examples below, transplantable experimental murine fibrosarcomas (2×10^5 RIF-1 cells) were grown intradermally in the flank s of 3 month old female C3H mice (Charles River, Holister, Calif.). When the tumors reached a volume of approximately 100 mm^3, the mice were randomly assigned to each experimental group (4 mice per group).
(§2) Colchicine was obtained from Sigma-Aldrich (St. Louis, Mo.) and was made to the appropriate concentration in water for injection. After the treatments described below, the growth of the tumors was monitored three times per week by caliper measurements of three perpendicular diameters of the tumor. The tumor volume was calculated from the formula: V=π/6×D1×D2×D3, where D1-3 are the diameter measurements in mm.
(§3) In each Example, the tumors were followed until they reached a size of four times their day zero treatment volume (TVQT), or up to 30 days after treatment, whichever came first. The data is expressed as the “tumor volume quadrupling time” (TVQT) mean and as the “delay.” Mean TVQT is the mean days required for individual tumors to grow to four times the tumor volume at the initial treatment day. The “delay” is the median of days required for a tumor to grow to four times the mean size of the treated group, minus the median of days required to grow to four times the mean size of the control group. The data is also expressed as the ratio of the tumor volume quadrupling time of the treated tumor over the untreated control group (TVQT/CTVQT). Increasing values of this ratio indicate increased antitumor response.
A. Effect of Single Doses of Colchicine Administered Concurrently with Camptothecin Camptothecin (Boehringer Ingelheim-Lot 71012) was made to the appropriate concentration in DMSO. Colchicine was given orally in a volume of 100 μl. Camptothecin was injected systemically (i.e., intraperitoneally, i.p.), in a volume of 100 μl. For the treatment of group 3, colchicine was given orally immediately prior to the intraperitoneal injection of camptothecin. The experimental compositions were prepared as described in Table 4.

[3] = system: murine fibrosarcomas (RIF-1 cells); experiment: RIF-1 tumor growth delay, single or multiple colchicine doses in mixed sequence with camptothecin (Example 2B); format: in vivo, C3H mice
Description: as §1, §2, §3
In FIG. 5, the arrow indicates a one hour interval separating treatment with each agent. The experimental compositions were prepared as described above. In two treatment groups, colchicine was administered orally in three doses (“colch×3” or “colchicine×3”). When three dosages of colchicine were administered, the first was given one hour after the administration of camptothecin (day 0), the second on day 1 and the third on day 2.

[4] = system: murine fibrosarcomas (RIF-1 cells); format: in vivo, C3H mice
Description: as §1, §2, §3
Cisplatin (David Bull Laboratories—Mulgrave, Australia, lot. 5201844x) was made to the appropriate concentration in water for injection. Colchicine was given orally in a volume of 100 μl. Cisplatin was injected systemically (i.e., intraperitoneally, i.p.), in a volume of 100 μl. For the treatment of group 3, colchicine was given orally immediately prior to the intraperitoneal injection of cisplatin. The experimental compositions were prepared as described in Table 7.

[5] = system: murine fibrosarcomas (RIF-1 cells); format: in vivo, C3H mice; remark: listed apart in the source
Description: as §1, §2, §3
Etoposide (Sigma-Aldrich, lot. 46H078) was made to the appropriate concentration in DMSO. Etoposide and colchicine were injected systemically (i.e., intraperitoneally, i.p.), in a volume of 100 μl. The experimental compositions were prepared as described in Table 2.

[6] = system: murine fibrosarcomas (RIF-1 cells); format: in vivo, C3H mice; remark: listed apart in the source
Description: as §1, §2, §3
Paclitaxel was obtained prediluted at 1 mg/ml in a cremaphor/ethanol solution. Colchicine was given at a dose of 2 mg/kg and paclitaxel was given, for each injection, at a dose of 10 mg/kg. For group 4, a total of three paclitaxel injections were given, one each on days 0, 3 and 5. The compositions were injected systemically (i.e., intraperitoneally, i.p.), in a volume of 100 μl.

[7] = system: murine fibrosarcomas (RIF-1 cells)
Description: In each Example, the tumors were followed until they reached a size of four times their day zero treatment volume (TVQT), or up to 30 days after treatment, whichever came first. The data is expressed as the “tumor volume quadrupling time” (TVQT) mean and as the “delay.” Mean TVQT is the mean days required for individual tumors to grow to four times the tumor volume at the initial treatment day. […] The data is also expressed as the ratio of the tumor volume quadrupling time of the treated tumor over the untreated control group (TVQT/CTVQT). Increasing values of this ratio indicate increased antitumor response.

[8] = colchicine 10 mg/kg oral × 3 (days 0, 1, 2)
[9] = colchicine 10 mg/kg oral, single dose
[10] = colchicine 2 mg/kg i.p. (Table 11: 1 mg/kg)
[11] = paclitaxel 10 mg/kg i.p., 3× (days 0, 3, 5)
[12] = paclitaxel 10 mg/kg i.p., given once
[13] = vinblastine 1 mg/kg i.p., 3× (days 0, 3, 6)
[14] = vinblastine 1 mg/kg i.p., 4× (days 0, 3, 6, 8)

Structure (SMILES): CN(C)CCN1C(=O)c2cccc3cc(N)cc(c23)C1=O [Amonafide]
- Days to 4× (ave ± SE) ([1]; amonafide IP 60 mg/kg): 9.8 ± 0.6 days
- Days to 4× Median ([1]; amonafide IP 60 mg/kg): 10.1 days
- Delay ([1]; amonafide IP 60 mg/kg): 2.55 days
- T/C ([1]; amonafide IP 60 mg/kg): 1.3

Structure (SMILES): CC[C@@]1(O)C(=O)OCc2c1cc1n(c2=O)Cc2cc3ccccc3nc2-1 [Camptothecin, camptothecin]
- Delay ([2]; camptothecin 6 mg/kg i.p.): 3.60 days
- Mean TVQT ± S.E. ([2]; camptothecin 6 mg/kg i.p.): 9.4 ± 0.5 days
- Median (TVQT) ([2]; camptothecin 6 mg/kg i.p.): 9.9 days
- TVQT/CTVQT ([2]; camptothecin 6 mg/kg i.p.): 1.5
- Days to 4× (Ave ± SE) ([3]; CPT 6 mg/kg IP): 12.9 ± 0.5 days
- Delay ([3]; CPT 6 mg/kg IP): 5.45 days
- Median ([3]; CPT 6 mg/kg IP): 12.8 days
- T/C ([3]; CPT 6 mg/kg IP): 1.7
- Days to 4× (ave ± SE) ([1]; camptothecin IP 3 mg/kg): 8.26 ± 0.46 days
- Days to 4× Median ([1]; camptothecin IP 3 mg/kg): 8.27 days
- Delay ([1]; camptothecin IP 3 mg/kg): 0.71 days
- T/C ([1]; camptothecin IP 3 mg/kg): 1.1

Structure (SMILES): N.N.[Cl][Pt][Cl] [Cisplatin, cis-diamminedichloroplatinum II]
- Delay ([4]; cisplatin 4 mg/kg i.p.): 1.45 days
- Median (TGD) ([4]; cisplatin 4 mg/kg i.p.): 7.7 days
- TGD ± S.E. ([4]; cisplatin 4 mg/kg i.p.): 7.4 ± 0.3 days
- TGD/CTGD ([4]; cisplatin 4 mg/kg i.p.): 1.2
- Days to 4× (ave ± SE) ([1]; CDDP IP 4 mg/kg): 9.44 ± 0.42 days
- Days to 4× Median ([1]; CDDP IP 4 mg/kg): 9.22 days
- Delay ([1]; CDDP IP 4 mg/kg): 1.66 days
- T/C ([1]; CDDP IP 4 mg/kg): 1.2

Structure (SMILES): COc1cc2c(c(OC)c1OC)-c1ccc(OC)c(=O)cc1[C@@H](NC(C)=O)CC2 [Colchicine, (S)-N-(5,6,7,9-tetrahydro-1,2,3,10-tetramethoxy-9-oxobenzo[a]heptalen-7-yl)acetamide]
- Effect of colchicine on the antiproliferative activity of etoposide ([5]; both compounds (group 4) versus etoposide alone or colchicine alone): more than additive effect
- Delay ([5]; colchicine 2 mg/kg i.p.): 1.65 days
- Mean TVQT ± S.E. ([5]; colchicine 2 mg/kg i.p.): 9.5 ± 0.2 days
- Median (TVQT) ([5]; colchicine 2 mg/kg i.p.): 9.3 days
- TVQT/CTVQT ([5]; colchicine 2 mg/kg i.p.): 1.2
- Effect of colchicine on the antiproliferative activity of camptothecin ([2]; both compounds (group 4) versus camptothecin alone or colchicine alone): more than additive effect
- Delay ([2]; colchicine 10 mg/kg oral): 0.02 days
- Mean TVQT ± S.E. ([2]; colchicine 10 mg/kg oral): 6.4 ± 0.3 days
- Median (TVQT) ([2]; colchicine 10 mg/kg oral): 6.3 days
- TVQT/CTVQT ([2]; colchicine 10 mg/kg oral): 1.0
- Days to 4× (Ave ± SE) [3, 8]: 7.2 ± 0.3 days
- Delay [3, 8]: -0.04 days
- Median [3, 8]: 7.3 days
- T/C [3, 8]: 1.0
- Tumor growth delay, three doses of colchicine compared to a single dose ([3]; colchicine 10 mg/kg oral × 3 versus single dose): did not delay tumor growth significantly
- Days to 4× (Ave ± SE) [3, 9]: 7.7 ± 0.4 days
- Delay [3, 9]: 0.32 days
- Median [3, 9]: 7.6 days
- T/C [3, 9]: 1.0
- Effect of colchicine on the antiproliferative activity of cisplatin ([4]; both compounds (group 4) versus cisplatin alone or colchicine alone): more than additive effect
- Delay ([4]; colchicine 10 mg/kg oral): 0.02 days
- Median (TGD) ([4]; colchicine 10 mg/kg oral): 6.3 days
- TGD ± S.E. ([4]; colchicine 10 mg/kg oral): 6.4 ± 0.3 days
- TGD/CTGD ([4]; colchicine 10 mg/kg oral): 1.0
- Delay [6, 10]: 3.34 days
- Mean TVQT ± S.E. [6, 10]: 11.3 ± 0.6 days
- Median (TVQT) [6, 10]: 10.8 days
- TVQT/CTVQT [6, 10]: 1.5
- Delay ([7]; colchicine 1 mg/kg i.p.): 1.15 days
- Mean TVQT ± S.E. ([7]; colchicine 1 mg/kg i.p.): 7.2 ± 0.5 days
- Median (TVQT) ([7]; colchicine 1 mg/kg i.p.): 7.2 days
- TVQT/CTVQT ([7]; colchicine 1 mg/kg i.p.): 1.1

Structure (SMILES): COc1cc([C@@H]2c3cc4c(cc3[C@@H](O[C@@H]3O[C@@H]5CO[C@@H](C)O[C@H]5[C@H](O)[C@H]3O)[C@H]3COC(=O)[C@H]23)OCO4)cc(OC)c1O [Etoposide]
- Delay ([5]; etoposide 10 mg/kg i.p.): -0.17 days
- Mean TVQT ± S.E. ([5]; etoposide 10 mg/kg i.p.): 7.7 ± 0.5 days
- Median (TVQT) ([5]; etoposide 10 mg/kg i.p.): 7.5 days
- TVQT/CTVQT ([5]; etoposide 10 mg/kg i.p.): 1.0

Structure (SMILES): CC(=O)O[C@H]1C(=O)[C@@]2(C)[C@H]([C@H](OC(=O)c3ccccc3)[C@]3(O)C[C@H](OC(=O)[C@H](O)[C@@H](NC(=O)c4ccccc4)c4ccccc4)C(C)=C1C3(C)C)[C@]1(OC(C)=O)CO[C@@H]1C[C@@H]2O [Paclitaxel]
- Effectiveness of paclitaxel given 3 times versus once ([6]; RIF-1 model, paclitaxel 10 mg/kg i.p.): slightly more effective
- Delay [6, 11]: 1.59 days
- Mean TVQT ± S.E. [6, 11]: 10.8 ± 1.9 days
- Median (TVQT) [6, 11]: 9.0 days
- TVQT/CTVQT [6, 11]: 1.4
- Delay [6, 12]: 0.67 days
- Mean TVQT ± S.E. [6, 12]: 9.1 ± 0.7 days
- Median (TVQT) [6, 12]: 8.1 days
- TVQT/CTVQT [6, 12]: 1.2

Structure (SMILES): CC[C@]1(O)C[C@@H]2CN(CCc3c([nH]c4ccccc34)[C@@](C(=O)OC)(c3cc4c(cc3OC)N(C)[C@H]3[C@@](O)(C(=O)OC)[C@H](OC(C)=O)[C@]5(CC)C=CCN6CC[C@]43[C@@H]65)C2)C1 [Vinblastine]
- Tumor growth delay curve when vinblastine was given after colchicine ([7]; group 7: vinblastine days 0, 3, colchicine day 6, vinblastine day 8): renewed sensitivity to vinblastine
- Delay ([7]; vinblastine 1 mg/kg i.p., 1×): 0.11 days
- Mean TVQT ± S.E. ([7]; vinblastine 1 mg/kg i.p., 1×): 6.6 ± 0.4 days
- Median (TVQT) ([7]; vinblastine 1 mg/kg i.p., 1×): 6.2 days
- TVQT/CTVQT ([7]; vinblastine 1 mg/kg i.p., 1×): 1.0
- Mean TVQT ± S.E. [7, 13]: 8.9 ± 0.9 days
- Median (TVQT) [7, 13]: 7.8 days
- TVQT/CTVQT [7, 13]: 1.4
- Mean TVQT ± S.E. [7, 14]: 8.4 ± .06 days
- Median (TVQT) [7, 14]: 8.6 days
- TVQT/CTVQT [7, 14]: 1.2
